Measured values taken from paper doi:10.1101/2025.10.13.682155v1 (biorxiv, 2025).

Molecular target: T1, hCNPY4 (FLAG-tagged human Canopy4) (Homo sapiens, UniProt Q8N129)
T1 sequence (Q8N129 22-248): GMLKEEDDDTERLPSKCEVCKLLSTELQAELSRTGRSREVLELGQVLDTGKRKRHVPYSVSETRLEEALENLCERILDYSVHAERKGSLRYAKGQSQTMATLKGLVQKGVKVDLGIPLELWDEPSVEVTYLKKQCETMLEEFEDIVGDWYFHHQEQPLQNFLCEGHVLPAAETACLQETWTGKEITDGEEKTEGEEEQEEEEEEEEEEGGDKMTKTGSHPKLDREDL
Assay: fluorescence polarization, direct titration
Format: binding

Kd [nM]	Compound
80 ± 25	CCCCCCCCCCCCC/C=C/[C@@H](O)[C@H](CO)NC(=O)CCCCCNc1ccc([N+](=O)[O-])c2nonc12 [NBD-ceramide 6:0]
280 ± 120	CCCCCCCCCCCCC/C=C/[C@@H](O)[C@H](COP(=O)([O-])OCC[N+](C)(C)C)NC(=O)CCCCCNc1ccc([N+](=O)[O-])c2nonc12 [NBD-sphingomyelin 6:0]
130 ± 40	CCCCCCCCCCCCC/C=C/[C@@H](O)[C@H](COP(=O)(O)O)NC(=O)CCCCCNc1ccc([N+](=O)[O-])c2nonc12 [NBD-ceramide-1-phosphate 6:0]
